Experimental data published in ChEMBL document CHEMBL1126876, “Synthesis of paraxanthine analogs (1,7-disubstituted xanthines) and other xanthines unsubstituted at the 3-position: structure-activity relationships at adenosine receptors” (J Med Chem, 1993).

Assays:
Adenosine receptor A1 [1] = target: T1, Adenosine receptor A1 (Rattus norvegicus, UniProt P25099); assay: Binding affinity at Adenosine A1 receptor in rat brain cortical membrane using [3H]N6-R-phenylisopropyladenosine (R-PIA) as radioligand; type: cell membranes
T1 sequence (P25099 whole entry): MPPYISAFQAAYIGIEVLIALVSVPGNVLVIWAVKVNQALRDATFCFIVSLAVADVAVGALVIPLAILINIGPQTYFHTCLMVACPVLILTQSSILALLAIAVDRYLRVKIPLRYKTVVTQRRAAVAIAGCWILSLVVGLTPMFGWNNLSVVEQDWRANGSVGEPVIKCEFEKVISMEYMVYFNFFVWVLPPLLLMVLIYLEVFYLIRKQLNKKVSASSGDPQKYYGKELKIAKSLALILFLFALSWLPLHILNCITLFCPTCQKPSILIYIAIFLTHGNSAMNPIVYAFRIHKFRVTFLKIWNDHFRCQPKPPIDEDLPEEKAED

Adenosine A2 receptor = Adenosine A2 receptor (Rattus norvegicus, UniProt P29276+P30543); assay: Binding affinity against Adenosine A2 receptor in rat striatal membranes using [3H]5'-(N-ethylcarboxamido)-adenosine (NECA) as the ligand; type: cell membranes, Striatum, Membrane
[2] = target: T2, Adenosine A2 receptor (Rattus norvegicus) (UniProt P29276+P30543); assay: Binding affinity at Adenosine A2 receptor in rat striatal membrane using [3H]- 5'-N-ethylcarboxamidoadenosine (NECA) at 200 uM; type: cell membranes; details: Striatum
[3] = target: T3, Adenosine receptor A1 (Rattus norvegicus) (UniProt P25099); assay: Binding affinity at Adenosine A1 receptor in rat brain cortical membrane using [3H]- N6-R-phenylisopropyladenosine (R-PIA) at 200 uM
T3 sequence (whole entry): T1 sequence (P25099 whole entry)

[4] = target: T2, Adenosine A2 receptor (Rattus norvegicus); details: Striatum, Membrane, at 250 µM
Description: Binding affinity at Adenosine A2 receptor in rat striatal membrane using [3H]- 5'-N-ethylcarboxamidoadenosine (NECA) at 250 uM

[5] = target: T3, Adenosine receptor A1 (Rattus norvegicus); assay: Binding affinity at A1 adenosine receptor in rat brain cortical membrane using [3H]- N6-R-phenylisopropyladenosine (R-PIA) at 250 uM; type: cell membranes
[6] = target: T2, Adenosine A2 receptor (Rattus norvegicus); assay: Binding affinity at Adenosine A2 receptor in rat striatal membrane using [3H]- 5'-N-ethylcarboxamidoadenosine (NECA) at 1 uM; type: cell membranes; details: Striatum
Adenosine receptor A1 [7] = target: T1, Adenosine receptor A1; assay: Binding affinity at A1 adenosine receptor in rat brain cortical membrane using [3H]- N6-R-phenylisopropyladenosine (R-PIA); type: cell membranes
[8] = target: T2, Adenosine A2 receptor (Rattus norvegicus); assay: Binding affinity at Adenosine A2 receptor in rat striatal membrane using [3H]- 5'-N-ethylcarboxamidoadenosine (NECA) at 200 uM; details: Striatum
[9] = target: T3, Adenosine receptor A1 (Rattus norvegicus); assay: Binding affinity at Adenosine A1 receptor in rat brain cortical membrane using [3H]- N6-R-phenylisopropyladenosine (R-PIA); type: cell membranes; details: concentration not given here
[10] = target: T3, Adenosine receptor A1 (Rattus norvegicus); assay: Binding affinity at Adenosine A1 receptor in rat brain cortical membrane using [3H]- N6-R-phenylisopropyladenosine (R-PIA) at 100 uM; type: cell membranes
[11] = target: T3, Adenosine receptor A1 (Rattus norvegicus); details: Brain, at 250 µM
[12] = target: T2, Adenosine A2 receptor (Rattus norvegicus); assay: Binding affinity at Adenosine A2 receptor in rat striatal membrane using [3H]- 5'-N-ethylcarboxamidoadenosine (NECA) at 20 uM; type: cell membranes; details: Striatum
[13] = target: T3, Adenosine receptor A1 (Rattus norvegicus); assay: Binding affinity at Adenosine A1 receptor in rat brain cortical membrane using [3H]- N6-R-phenylisopropyladenosine (R-PIA) at 250 uM; type: cell membranes

SMILES	Ki (Adenosine receptor A1 [1]) [µM]	Ki (Adenosine A2 receptor) [µM]	other results
CC(=O)Cn1c(=O)[nH]c2[nH]c(C3CCCC3)nc2c1=O	2.5	9.7	–
Cn1c(=O)[nH]c2c(ncn2C)c1=O	–	–	inhibition [2]: 14%; inhibition [3]: 11%
CCCn1c(=O)c2nc[nH]c2n(C)c1=O	5.7	37	–
O=c1[nH]c2[nH]cnc2c(=O)n1Cc1cccc(Cl)c1	4.9	26	–
C#CCn1c(=O)c2c(nc(-c3ccccc3)n2C)n(C)c1=O	6.1	6.4	–
CC(C)n1c(=O)n(C)c(=O)c2[nH]cnc21	–	16	–
CCCn1cnc2c(=O)[nH]c(=O)[nH]c21	–	–	inhibition [4]: 15%; inhibition [5]: 42%
CCCn1c(=O)[nH]c2[nH]c(-c3ccccc3)nc2c1=O	–	1.9	–
Cn1c(=O)[nH]c2ncn(C)c2c1=O [PARAXANTHINE]	21	32	–
CCCn1c(=O)[nH]c2ncn(C)c2c1=O	21	29	–
CCn1c(=O)[nH]c2[nH]c(C3CCCCC3)nc2c1=O	–	2.3	–
CCCCn1c(=O)[nH]c2[nH]cnc2c1=O	–	61	–
O=c1[nH]c2[nH]c(-c3ccccc3)nc2c(=O)n1Cc1cccc(Cl)c1	–	–	inhibition [6]: 32%
Cn1cnc2[nH]c(=O)[nH]c(=O)c21 [7-METHYLXANTHINE]	33	59	–
CCCn1c(=O)[nH]c(=O)c2[nH]c(C3CCCCC3)nc21	–	24	–
Cn1c(=O)[nH]c(=O)c2[nH]c(-c3ccccc3)nc21	3.4	–	inhibition [4]: 17%
Cn1c(=O)[nH]c2[nH]cnc2c1=O [1-METHYLXANTHINE]	36	47	–
C#CCn1cnc2[nH]c(=O)n(C)c(=O)c21	9.9	14	–
O=c1[nH]c2nc(-c3ccccc3)[nH]c2c(=O)n1CCc1ccccc1	0.19	–	–
CCCn1c(=O)[nH]c(=O)c2[nH]c(-c3ccccc3)nc21	–	61	–
CCCn1cnc2[nH]c(=O)[nH]c(=O)c21	18	–	inhibition [2]: 40%
O=c1[nH]c2nc(-c3ccccc3)[nH]c2c(=O)n1Cc1cccc(Cl)c1	–	–	Ki (Adenosine receptor A1 [7]): 0.068 µM
CN1CN(C)c2c(O)nc(O)nc21	–	–	inhibition [8]: 6%; inhibition [5]: 5%
CC(C)Cn1c(=O)c2nc[nH]c2n(CC(C)C)c1=O	4	–	–
O=c1[nH]c(=O)c2[nH]c(-c3ccccc3)nc2[nH]1	–	21	Ki (Adenosine receptor A1 [7]): 2.5 µM
C#CCn1c(=O)[nH]c2[nH]c(C3CCCCC3)nc2c1=O	0.17	1.7	–
C=CCn1cnc2c1c(=O)[nH]c(=O)n2CC=C	36	36	–

SMILES	Ki (Adenosine receptor A1 [1]) [µM]	Ki (Adenosine A2 receptor) [µM]	other results
Cn1c(=O)[nH]c(=O)c2[nH]c(-c3ccc(S(=O)(=O)O)cc3)nc21	–	–	inhibition [4]: 16%; inhibition [9]: 5%
CCn1c(=O)c2nc[nH]c2n(CC)c1=O	3.7	31	–
C#CCn1c(=O)c2[nH]cnc2n(C)c1=O	0.82	4.8	–
O=c1[nH]c2nc[nH]c2c(=O)n1CCc1ccccc1	12	–	–
C=CCn1c(=O)c2[nH]c(-c3ccccc3)nc2n(C)c1=O	0.1	2.1	–
O=c1[nH]c2[nH]cnc2c(=O)n1C1CCCC1	11	13	–
C#CCn1c(=O)[nH]c2[nH]cnc2c1=O	20	26	–
CCCn1c(=O)n(C)c(=O)c2[nH]cnc21	6.3	19	–
CCCCn1cnc2[nH]c(=O)[nH]c(=O)c21	27	66	–
Cn1c(=O)[nH]c2[nH]c(-c3ccccc3)nc2c1=O	0.26	2.2	–
O=c1[nH]c2[nH]c(-c3ccccc3)nc2c(=O)n1CCc1ccccc1	–	–	inhibition [6]: 0%
Cn1c(=O)[nH]c(=O)c2[nH]cnc21 [3-METHYLXANTHINE]	–	59	inhibition [10]: 24%
C#CCn1c(=O)[nH]c2ncn(C)c2c1=O	22	16	–
CCCn1c(=O)[nH]c2[nH]cnc2c1=O	13	33	–
CCn1c(=O)[nH]c2[nH]c(-c3ccccc3)nc2c1=O	0.15	1.8	–
C=CCn1c(=O)[nH]c2[nH]cnc2c1=O	9.2	10	–
C#CCn1c(=O)[nH]c2[nH]c(-c3ccccc3)nc2c1=O	0.21	0.73	–
CCCn1c(=O)[nH]c2[nH]c(C3CCCC3)nc2c1=O	0.014	0.58	–
CC(C)Cn1c(=O)n(C)c(=O)c2nc[nH]c21 [ISOBUTYLMETHYLXANTHINE]	–	16	–
Cn1cnc2c(=O)[nH]c(=O)n(C)c21	–	–	inhibition [11]: 42%; inhibition [2]: 11%
O=c1[nH]c2[nH]cnc2c(=O)n1Cc1ccccc1	2.8	22	–
CC(C)n1c(=O)[nH]c(=O)c2[nH]cnc21	–	53	inhibition [10]: 34%
CC(C)CCn1c(=O)c2nc[nH]c2n(CC(C)C)c1=O	–	11	–
O=c1[nH]c2[nH]cnc2c(=O)n1CCc1ccccc1	–	–	inhibition [12]: 0%
CCCn1c(=O)[nH]c2nc(-c3ccc(S(=O)(=O)O)cc3)[nH]c2c1=O	2.2	24	–
CCn1c(=O)c2nc[nH]c2n(C)c1=O	–	23	–
CCCn1c(=O)[nH]c(=O)c2[nH]c(-c3ccc(S(=O)(=O)O)cc3)nc21	–	–	inhibition [4]: 44%; inhibition [13]: 40%
